The test system of data set [1] is hippocampal slices. Put plainly: Metabolic labeling of new protein synthesis (35S-Met/Cys incorporation) in hippocampal slices. In kind it is cell-based, mice. Particulars: CDPPB 10 μM, 30 min. As for the experimental part:
Metabolic labeling of new protein synthesis was performed as previously described (Osterweil et al., J. Neurosci. 46, 15616-27 (2010)). Male P28-P32 littermate mice were anesthetized with isoflurane and the hippocampus was rapidly dissected into ice-cold aCSF (in mM: 124 NaCl, 3 KCl, 1.25 NaH2PO4, 26 NaHCO3, 10 dextrose, 1 MgCl2, 2 CaCl2, saturated with 95% O2 and 5% CO2). Hippocampal slices (500 μm) were prepared using a Stoelting Tissue Slicer and transferred into 32.5° C. aCSF (saturated with 95% O2 and 5% CO2) within 5 mM. Slices were incubated in aCSF undisturbed for 3.5-4 h to allow for recovery of basal protein synthesis. Actinomycin D (25 μM) and vehicle or CDPPB (10 μM) was then added to the recovery chamber for 30 mM to inhibit transcription and stimulate mGlu receptors, respectively after which slices were transferred to fresh aCSF containing ˜10 mCi/ml [^35S] Met/Cys (Perkin Elmer) for an additional 30 mM Slices were then homogenized, and labeled proteins isolated by TCA precipitation. Samples were read with a scintillation counter and subjected to a protein concentration assay (Bio-Rad). Data was analyzed as counts per minute per microgram of protein, normalized to the [^35S] Met/Cys aCSF used for incubation and the average incorporation of all samples analyzed and then normalized to percent wild-type for each experiment. Statistical significance was determined using unpaired t-tests.
To determine the role of β-arrestin2 in mGlu5-mediated protein synthesis, hippocampal slices from male Arrb2^+/− and wild-type (WT) littermates were stimulated with a selective […] positive modulator of mGlu5, 3-Cyano-N-(1,3-diphenyl-1H-pyrazol-5-yl) benzamide (CDPPB, 10 μM, 30 minutes), and the incorporation of ^35S-methionine/cysteine into new protein was measured. mGlu5 activation caused a parallel increase in protein synthesis (FIG. 1A) and ERK1/2 phosphorylation (FIG. 1B) in WT slices, which were both absent in slices from Arrb2^+/− mice. […]

A further data set concerns ERK1/2. Briefly: Immunoblotting of ERK1/2 phosphorylation in hippocampal slices. In kind it is cell-based, mice. Particulars: CDPPB 10 μM, 30 min. As for the experimental part: (§1) Hippocampal slices were prepared and recovered as described in metabolic labeling experiments. Sets of slices were stimulated with CDPPB (10 μM) for 30 minutes and then flash frozen in liquid nitrogen immediately after stimulation, prior to processing. Yoked unstimulated slices were also processed to assess basal signaling levels Immunoblotting was performed according to established methods using primary antibodies to p-ERK1/2 (Thr202/Tyr204) (Cell Signaling Technology), ERK1/2 (Cell Signaling Technology), p-Akt (Ser473) (Cell Signaling Technology), Akt (Cell Signaling Technology), […] (Cell Signaling Technology) and S6 (Cell Signaling Technology). Protein levels were measured by densitometry (Quantity One), and quantified as the densitometric signal of phospho-protein divided by the total protein signal in the same lane.

In a further data set the test system is AKT. Put plainly: Immunoblotting of AKT phosphorylation in hippocampal slices. In kind it is cell-based, mice. As to conditions: 10 μM CDPPB. On the procedure: as §1
In a further data set the test system is ribosomal protein S6. Briefly: Immunoblotting of ribosomal protein S6 phosphorylation in hippocampal slices. It is filed as cell-based, mice. As to conditions: 10 μM CDPPB. As for the experimental part:
as §1

A further data set has as its system hippocampal neurons. Briefly: Fluorescence-based calcium imaging in brain slices (Fluo-4 AM). It is filed as cell-based, mice. As to conditions: DHPG 25 μM. As for the experimental part:
Hippocampal slices were prepared as described for electrophysiology experiments and recovered in aCSF for 2 hours at 32° C. Slices were then moved to a small recovery chamber and incubated in oxygenated aCSF containing 20 μM fluo-4-acetoxymethyl ester (fluo-4 AM; ThermoFisher) and 0.1% Pluronic F-127 (ThermoFisher) for 1 hour in the dark. After 1 hour, slices were then washed with oxygenated aCSF containing 1 μM tetrodotoxin (Abcam) and 50 μM D-AP5 (Tocris) for 20 minutes in a recording chamber. A low-powered (4×) objective was used to identify the brain region of interest. CA1 pyramidal neurons were visualized using a 40× water immersion objective and a Nikon Eclipse E600FN microscope.
Changes in Ca^2+ fluorescence were monitored in the presence of 1 μM tetrodotoxin and 50 μM D-AP5 using a Hamamatsu ORCA-100 camera, HClmage software (Hamamatsu), and a mercury arc-lamp and power supply (Nikon). After a 10 second baseline, 25 μM (S)-3,5-DHPG was bath applied. […] Data were analyzed using Image J software. Increases in Ca^2+ mobilization in hippocampal neurons were reported as changes in relative fluorescence divided by the baseline fluorescence (ΔF/F).
To assay the integrity of Gq signaling, calcium mobilization in hippocampal slices from WT and Arrb2^+/− animals was measured using the cell-permeable calcium fluorescent dye Fluo4-AM. […]

Another data set concerns mice. Put plainly: MK801-induced hyperlocomotion in the open field. It is filed as in vivo. Particulars: for MK801-induced hyperlocomotion: MTEP 10 mg/kg i.p. pre-treatment, MK801 0.3 mg/kg. As for the experimental part:
To determine the effects of genotype on MK801-induced hyperlocomotion, mice were habituated in the open field (40 cm×40 cm×40 cm box) for 60 min, followed by the administration of vehicle or MK801 and locomotor activity was recorded for another 60 mM. To determine the effects of MTEP by genotype on MK801-induced hyperlocomotion, mice were habituated in the open field for 30 min, followed by the intraperitoneal (i.p.) administration of MTEP (10 mg/kg at a dosing volume of 10 ml/kg). After an additional 30 mM, MK801 (0.3 mg/kg at a dosing volume of 10 ml/kg) was administered i.p. and locomotor activity was recorded for another 60 mM. The time course of drug-induced changes in ambulation was expressed as cm traveled/5 mM over the 120-min session. Sessions were recorded using Plexon's CINEPLEX® Studio and analyzed using Plexon's CINEPLEX® Editor and code written in MATLAB. MK801-induced locomotor activity was scored and analyzed using the average of the final 5 minutes (minute 115-120) per cohort.

For data set [2], the system named is hippocampal slices. Put plainly: mGlu-LTD (DHPG-induced) field recordings in hippocampal slices. It is filed as cell-based, mice. On the procedure: Slices were prepared as described previously (Dolen et al., Neuron 6, 955-56 (2007)). Acute hippocampal slices (350 μm) were prepared from P28-35 animals in ice-cold dissection buffer containing (in mM): NaCl 87, Sucrose 75, KCl2.5, NaH2PO4 1.25, NaHCO3 25, CaCl2 0.5, MgSO4 7, Ascorbic acid 1.3, and D-glucose 10 (saturated with 95% O2/5% CO2). Immediately following slicing the CA3 region was removed. Slices were recovered in artificial cerebrospinal fluid (aCSF) containing (in mM): NaCl 124, KCl5, NaH2PO4 1.23, NaHCO3 26, CaCl2 2, MgCl2 1, and D-glucose 10 (saturated with 95% O2/5% CO2) at 32.5° C. for ≥3 hours prior to recording.
Field recordings were performed in a submersion chamber, perfused with aCSF (2-3 ml/min) at 30° C. Field EPSPs (fEPSPs) were recorded in CA1 stratum radiatum with extracellular glass electrodes (1-2 MΩ) filled with aCSF. Baseline responses were evoked by stimulation of the Schaffer collaterals at 0.033 Hz with a 2-contact cluster electrode (FHC) using a 0.2 ms stimulus yielding 40-60% of the maximal response. fEPSP recordings were filtered at 0.1 Hz-1 kHz, digitized at 10 kHz, and analyzed using pClamp9 (Axon Instruments). […]
Paired pulse facilitation was induced by applying two pulses at different interstimulus intervals. Facilitation was measured by the ratio of the fEPSP slope of stimulus 2 to stimulus 1. […]

Each structure is given as a SMILES string. Entries after “also recorded” stand apart in the source; their conditions may differ.

Take `N#Cc1cccc(C(=O)Nc2cc(-c3ccccc3)nn2-c2ccccc2)c1` [CDPPB, 3-Cyano-N-(1,3-diphenyl-1H-pyrazol-5-yl) benzamide]: the “Protein synthesis compared with vehicle” value was “similarly elevated” in the data set on hippocampal slices [1] (Arrb1+/− slices), “no effect” in the data set with hippocampal slices [1] (Arrb2+/− slices) and “similarly elevated” in the data set with hippocampal slices [1] (WT slices). For the same molecule, the “ERK1/2 phosphorylation compared with vehicle” value was “elevated” with ERK1/2 (Arrb1+/− slices), “no change” in the data set with ERK1/2 (Arrb2+/− slices) and “elevated” in the data set on ERK1/2 (WT slices). The “AKT phosphorylation compared with vehicle” value is listed as “Neither WT nor Arrb1^+/− slices stimulated with CDPPB show elevated AKT phosphorylation” in the data set with AKT (WT and Arrb1+/− slices); “Neither WT nor Arrb2^+/− slices stimulated with CDPPB show elevated AKT phosphorylation” with AKT (WT and Arrb2+/− slices). For the same molecule, the “S6 phosphorylation compared with vehicle” value is “Neither WT nor Arrb1^+/− slices stimulated with CDPPB show elevated S6 phosphorylation” with ribosomal protein S6 (WT and Arrb1+/− slices); “Neither WT nor Arrb2^+/− slices stimulated with CDPPB show elevated S6 phosphorylation” with ribosomal protein S6 (WT and Arrb2+/− slices).

For `N[C@H](C(=O)O)c1cc(O)cc(O)c1` [DHPG, (S)-3,5-Dihydroxyphenylglycine], in the data set with hippocampal neurons (1 min, WT and Arrb2+/− slices (not significantly different)), the “Ca2+-mediated fluorescence” value was “rapid increase”.

In the case of `C[C@]12N[C@H](Cc3ccccc31)c1ccccc12` [MK801], in the data set with mice (MK801 0.3 mg/kg i.p., 60 minutes post-treatment, WT and Arrb2+/− mice (comparable)), the “Locomotor activity compared to vehicle” value is reported as “hyperlocomotion”.

In the case of `Cc1nc(C#Cc2cccnc2)cs1` [MTEP, 3-[(2-Methyl-1,3-thiazol-4-yl)ethynyl]-pyridine], the figures for the MK801-induced hyperlocomotion result in the data set on mice (Arrb2+/− mice) and with mice (WT mice) were “continues to exacerbate; also recorded: potentiates” and “significantly potentiates”, respectively.

`COc1ccc2c(c1)CC[C@@H]1[C@@H]2CC[C@]2(C)[C@@H](NCCCCCCN3C(=O)C=CC3=O)CC[C@@H]12` [U73122]: in the data set with hippocampal neurons (pretreatment with 10 μM U73122, data not shown), the “DHPG-induced changes in calcium fluorescence” value is reported as “completely blocked”.

Turning to `C[C@@H]1C[C@@H]([C@H](O)CC2CC(=O)NC(=O)C2)C(=O)[C@@H](C)C1` [cycloheximide], the “DHPG-LTD (25 μM, 5 min) magnitude” value in the data set on hippocampal slices [2] (Arrb2+/− slices, cycloheximide 60 μM, listed as CHX) was “unaffected; also recorded: no effect”; in the data set on hippocampal slices [2] (WT slices, cycloheximide 60 μM pretreatment), “significantly diminished; also recorded: significantly attenuated”.
